Data published in patent US20100093642A1, “NOVEL POLYPEPTIDES” (priority 2006, published 2010).
Residues, ends and D or L forms follow the SMILES beside them. No end group written: not given here.

Assays:
[1] = test system: human breast malignant carcinoma cell line (MT-1); assay type: cell-based; conditions: 24 h
Description: The cytotoxic effects of the peptides on different human tumour cells were measured using the MTT colorimetric assay (Mosmann, 1983). MIT (3-(4-5-dimethylthiazol-2-yl)-2,5-diphenyl tetrazolium bromide) is a soluble tetrazolium salt yielding a yellow solution when prepared in media or salt solutions lacking phenol red. Dissolved MIT is converted to an insoluble purple formazan by cleavage of the tetrazolium ring by dehydrogenase enzymes. This water insoluble formazan can be solubilized using isopropanol or other solvents and the dissolved material is measured spectrophotometrically. The absorbance was measured as a function of concentration of converted dye. […]
The tumour cell lines FemX, HT-29, MT-1 were maintained in RPMI-1640 medium supplemented with 10% heat inactivated FBS and 1% L-glutamine in a humidified atmosphere of 5% CO2 at 37° C. […] Cells to be used in the assay were grown to a minimum of 75% confluency, trypsinated and split to single cell suspension, counted and centrifuged at 1500 rpm for 10 min. […]
The cytotoxicity was measured using the MTT method (Mosmann, 1983), with minor modifications. […] The plate was placed on a shaker for 1 hour at room temperature and read spectrophotometrically at 590 nm in a microtiter plate reader (DTX880 Multimode Detector, Beckman Coulter). […]

[2] = test system: Salmonella enterica serovar typhimurium (ATCC 14028); experiment: Bacterial cell viability, lux luminescence and OD600, with or without LPS; assay type: cell-based; conditions: co-incubation with 2.5 μM Aeromonas salmonicida LPS
From the text: To evaluate the effect of antimicrobial peptides on the viability of bacteria in a fast and reliable manner we used the lux CDABE operon from Photorhabdus luminescens as a reporter system in gram negative test bacteria and the modified luxABCDE operon in S. aureus (Vesterlund et al. 2004). Bacterial bioluminescence is directly dependent on metabolic activity, since reduction equivalents are needed to drive light emission. Any form of interruption of bacterial cell integrity or metabolism will therefore be detected as a reduction in light emission.
For the assay we used S. aureus (RN4220), E. coli K-12 and Salmonella enterica serovar typhimurium (ATCC 14028) transformed with the respective lux-operon containing plasmids (Vesterlund et al. 2004).
For each experiment a fresh colony was picked from Luria-Bertani plates supplemented with 10 μg/ml of erythromycin in case of S. aureus and with 100 μg/ml of ampicillin in case of E. coli and S. enterica serovar Typhimurium. Each colony was suspended in 5 ml of Müller-Hinton medium with appropriate antibiotics. The culture was incubated over night at 37° C. in a shaking incubator. The next morning 0.5 ml of this culture was transferred to 30 ml fresh MH medium in an Erlenmeyer-flask supplemented with the respective antibiotic. The flask was incubated (200 rpm shaking; 37° C.) until an OD600 of 0.5-0.8 was reached. The culture was then diluted to an OD600 of about 0.02-0.03 before transfer to the 96 well opaque plates with optical bottom (Packard ViewPlate) used for the assay.
The synthesized peptides were dissolved in water and aliquots frozen at −18° C. until use. Twofold dilutions of test peptides (final concentrations ranging from 0.31 to 80 μM) were directly prepared in 96 well microtiter plates in a volume of 10 μl in water. 90 μl is of indicator bacteria in MH medium were added directly to the prepared and pre-warmed (30 minutes at 37° C.) plate before starting the measurement in a Victor multiplate reader (Perkin Elmer) at 37° C. Both OD600 and luminescence in counts per second (cps) were followed over 5 hours in measuring intervals of 5 minutes. The plates where shaken before each measurement (20 sec.; 5 mm orbital shaking; 10 sec waiting). The growth curves and light emission curves were drawn and evaluated to determine the MIC for each indicator strain. The MIC was defined as the concentration of test compound causing more than 50% reduction in bioluminescence (cps) or optical density (OD600) after 5 hours, compared to the growth control. Cecropin P1 was used as positive control. The results (table 14a-b) confirm the results obtained in example 2, showing a pronounced antibacterial effect of the longest peptide fragments. […] The partial peptides P17 HC (1-20), both bromated and unbromated, inhibit growth only in higher concentrations.
A second plate with an otherwise similar setup (as described for the luminescence assay in example 3) was prepared, but with addition of Aeromonas salmonicida LPS to the peptide dilutions before pre-warming. The LPS end concentration in each well was approximately 2.5 μM.

[3] = test system: C. glutamicum (ATCC 13032); assay type: cell-based, Corynebacterium glutamicum
Method in brief: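 Peptide fractions were incubated with actively growing bacteria in Mueller Hinton medium at a starting concentration of 3×10^4 cells per ml. Growth was monitored continuously in a Bioscreen C reader; polymyxin B served as reference.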

Molecule: CC[C@H](C)[C@H](NC(=O)CNC(=O)[C@H](CO)NC(=O)[C@H](CCCCN)NC(=O)[C@@H](NC(=O)[C@H](C)NC(=O)[C@H](Cc1c[nH]cn1)NC(=O)[C@H](CO)NC(=O)[C@@H](NC(=O)[C@H](CCCCN)NC(=O)[C@H](Cc1c[nH]cn1)NC(=O)[C@H](Cc1ccccc1)NC(=O)[C@@H](NC(=O)[C@H](CCCCN)NC(=O)[C@H](CCCCN)NC(=O)[C@H](Cc1ccccc1)NC(=O)C(Cc1c[nH]c2ccc(Br)cc12)NC(=O)CN)[C@@H](C)O)C(C)C)C(C)C)C(=O)N[C@@H](Cc1c[nH]cn1)C(=O)N[C@@H](C)C(=O)NCC(=O)N[C@@H](CCC(N)=O)C(=O)N[C@@H](CCCNC(=N)N)C(=O)NCC(=O)N[C@@H](CS)C(=O)N[C@@H](CO)C(=O)N[C@@H](C)C(=O)N[C@@H](CC(C)C)C(=O)NCC(=O)N[C@@H](Cc1ccccc1)C(=O)O (stereo partly shown) [P17 HC-Br] (HELM PEPTIDE1{G.[O=C(C(Cc1c[nH]c2ccc(Br)cc12)N[*:1])[*:2]].F.K.K.T.F.H.K.V.S.H.A.V.K.S.G.I.H.A.G.Q.R.G.C.S.A.L.G.F}$$$$V2.0)
- IC50 [1]: 20 µM

Molecule: CC[C@H](C)[C@H](NC(=O)CNC(=O)[C@H](CO)NC(=O)[C@H](CCCCN)NC(=O)[C@@H](NC(=O)[C@H](C)NC(=O)[C@H](Cc1c[nH]cn1)NC(=O)[C@H](CO)NC(=O)[C@@H](NC(=O)[C@H](CCCCN)NC(=O)[C@H](Cc1c[nH]cn1)NC(=O)[C@H](Cc1ccccc1)NC(=O)[C@@H](NC(=O)[C@H](CCCCN)NC(=O)[C@H](CCCCN)NC(=O)[C@H](Cc1ccccc1)NC(=O)C(Cc1c[nH]c2ccc(Br)cc12)NC(=O)CN)[C@@H](C)O)C(C)C)C(C)C)C(=O)N[C@@H](Cc1c[nH]cn1)C(=O)N[C@@H](C)C(=O)O (stereo partly shown) [P17 HC-Br (1-20)] (HELM PEPTIDE1{G.[O=C(C(Cc1c[nH]c2ccc(Br)cc12)N[*:1])[*:2]].F.K.K.T.F.H.K.V.S.H.A.V.K.S.G.I.H.A}$$$$V2.0; N-terminus and C-terminus assumed)
- MIC, more than 50% reduction in optical density, S. enterica, P + LPS ([2]; OD600, 5 hours): 10 µM
- MIC, more than 50% reduction in luminescence, S. enterica, P + LPS ([2]; luminescence (cps), 5 hours): 10 µM

Molecule: GWFKKTFHKVSHAVKSGIHA [P17 HC (1-20)]
- Minimal inhibitory concentration, C. glutamicum [3]: 1.56 µM
